The text below walks through data of article PMC11054132, “Neuroprotective Effects of Chemical Constituents of Leaves of Euonymus hamiltonianus Wall” (Plants, 2024).

Series [1] in a line: Storage stability of isolated compound by LC-MS. In kind it is physicochemical. To be noted: stored 27 days (compound 2) or a significant length of time (compound 1), dried powder and DMSO solution. On the procedure:
In this study, qualitative profile analysis was performed on the 30% EtOH crude extract of the leaves of E. hamiltonianus using HPLC. The isolated phytochemicals, 1–14, were used as standards and compared to the crude extract profile represented by a high-performance liquid chromatogram (Figure 3). […] With comparative UV area normalization, compound 2 was confirmed as a pure compound initially when isolated (Figure S3.8). […] For reconfirmation, LC-MS analyses of both the dried powdered form of the compound when isolated and the compound in DMSO solution were performed (Figure S3.9), both sets of results showing signs of degradation. Compound 2 was degraded into three separate peaks, and the original compound 2 indicated by m/z 759.2 was verified by LC-MS analysis, and the peaks of 2a and 2b were indicated by m/z 465.1 and 627, respectively. […] Due to the close resemblance of compound 2 to compound 1, it was investigated in the same manner after a significant length of time.

The subject of series [2] is NO production in LPS-activated BV-2 microglial cells. Briefly: NO production (Griess reaction) in LPS-stimulated BV-2 microglial cells. In kind it is cell-based, mouse. Particulars: for IC50: pretreated 1 h, 100 ng/mL LPS (footnote 24 h; text 12 h), means ± SDs (n = 3); for Inhibitory effect on NO production (in words): LPS-stimulated BV-2 microglial cells. The protocol:
The anti-inflammatory effects of the fourteen compounds (1–14) isolated from E. hamiltonianus were evaluated in activated BV-2 microglial cells by the production of NO and proinflammatory cytokines. […] […] The compounds were continuously assessed to determine whether they suppressed the expression of iNOS and COX-2 in LPS-stimulated BV-2 microglial cells. The cells were stimulated with LPS in the presence of these compounds at various concentrations, and the expression levels of iNOS and COX-2 were determined by Western blotting. […] Thus, compound 3 may be considered a potential anti-inflammatory agent.
For the Aβ-Hela-APPsw model, Hela cells were stably transfected with an APP carrying the Swedish mutation (APPsw) using BioT (Bioland Scientific LLC, Paramount, CA, USA) according to the manufacturer’s instructions, which was provided by Prof. Tae-Wan Kim (Department of Pathology, Columbia University of Medical Center, New York, NY 10032, USA). APPsw-transfected HeLa cells were grown in DMEM supplemented with 10% fetal bovine serum (FBS; Thermo Fisher Scientific, Lafayette, CA, USA), 1% penicillin/streptomycin (Thermo Fisher Scientific, Lafayette, CA, USA), 260 μg/mL Zeocin, and 400 μg/mL G418. The cells were maintained at 37 °C under a humidified atmosphere of 5% CO2. The stock sample solution was dissolved in DMSO and kept at −20 °C and diluted to the final concentration in fresh medium before each experiment. […] The EZ-Cytox kit (DAEILLAB, Cheongwon, Republic of Korea) was applied to detect the cell viability, following the manufacturer’s instructions, and measurements were taken by a microplate reader (BIO-TEK® Dower-Wave; BioTek, Winooski, VT, USA) under absorbance at 450 nm. The results were presented as the percentage of MTT reduction, compared with the control group as 100%. For the LPS-induced microglia model, the BV-2 mouse microglia cell line was provided by Prof. Lee Sung Jung’s research team in the College of Medicine, Seoul National University, and was cultured in DMEM-F12 with 5% FBS and 1% penicillin/streptomycin at 37 °C under a humidified atmosphere containing 5% CO2. And the cell viability assay was performed using the Aβ-Hela-APPsw model.
[…] The media were collected and centrifuged at 13,000 rpm for the removal of dead cells. The supernatants were collected and mixed with an equal volume (50 μL) of Griess reagents (1% sulfanilamide and N-(1-naphthyl) ethylenediamine dihydrochloride in 2.5% H3PO4) for 5 min at room temperature, and the Nitric Oxide concentration was measured at 540 nm using a microplate reader and compared with the sodium nitrite standard curve.

The nature of series [3]: Cytotoxicity (MTT assay) in BV-2 microglial cells. To be noted: mouse; BV-2 microglial cells, MTT assay; read-out: IC50 Value (µM) Cytotoxicity. It counts as cell-based.
For series [4], the system named is Aβ42 production in APPsw-transfected HeLa cells. Briefly: Aβ42 production (ELISA kit) in APPsw-transfected HeLa cells. It counts as cell-based. To be noted: Homo sapiens, HeLa, 8 h, APPsw-transfected HeLa cells; means ± SDs (n = 3). On the procedure:
APPsw-transfected HeLa cells were cultured with the isolated compounds or DMSO in Dulbecco’s modified Eagle medium (DMEM, Welgene, Gyeongsan-si, Republic of Korea) for 8 h, and then the cell culture supernatants were collected for the following analyses. For the detection of Aβ secretion, kits for Aβ42 (KHB3442) and Aβ40 (KHB3482) were purchased from the Invitrogen Company and used according to the supplier’s instructions.
For the Aβ-Hela-APPsw model, Hela cells were stably transfected with an APP carrying the Swedish mutation (APPsw) using BioT (Bioland Scientific LLC, Paramount, CA, USA) according to the manufacturer’s instructions, which was provided by Prof. Tae-Wan Kim (Department of Pathology, Columbia University of Medical Center, New York, NY 10032, USA). APPsw-transfected HeLa cells were grown in DMEM supplemented with 10% fetal bovine serum (FBS; Thermo Fisher Scientific, Lafayette, CA, USA), 1% penicillin/streptomycin (Thermo Fisher Scientific, Lafayette, CA, USA), 260 μg/mL Zeocin, and 400 μg/mL G418. The cells were maintained at 37 °C under a humidified atmosphere of 5% CO2. The stock sample solution was dissolved in DMSO and kept at −20 °C and diluted to the final concentration in fresh medium before each experiment. For the cell viability assay, Hela cells were cultured in 96-well plates for 24 h and then various concentrations of comp 27 (0–10 μM) were treated for 12 h. The EZ-Cytox kit (DAEILLAB, Cheongwon, Republic of Korea) was applied to detect the cell viability, following the manufacturer’s instructions, and measurements were taken by a microplate reader (BIO-TEK® Dower-Wave; BioTek, Winooski, VT, USA) under absorbance at 450 nm. The results were presented as the percentage of MTT reduction, compared with the control group as 100%. For the LPS-induced microglia model, the BV-2 mouse microglia cell line was provided by Prof. Lee Sung Jung’s research team in the College of Medicine, Seoul National University, and was cultured in DMEM-F12 with 5% FBS and 1% penicillin/streptomycin at 37 °C under a humidified atmosphere containing 5% CO2. And the cell viability assay was performed using the Aβ-Hela-APPsw model.

The subject of another series is COX-2. Nature of the series: Western blot of LPS-induced COX-2 expression in BV-2 microglial cells. In kind it is cell-based, mouse. Particulars: LPS-stimulated BV-2 microglial cells, various concentrations (1.0, 2.0, 4.0 µM). On the procedure: (§1) The anti-inflammatory effects of the fourteen compounds (1–14) isolated from E. hamiltonianus were evaluated in activated BV-2 microglial cells by the production of NO and proinflammatory cytokines. BV-2 microglial cells were stimulated with 0.1 µg/mL LPS for 12 h in the presence of the compounds at various concentrations, and the levels of NO in the culture supernatants were measured using Griess reactions. […] The compounds were continuously assessed to determine whether they suppressed the expression of iNOS and COX-2 in LPS-stimulated BV-2 microglial cells. The cells were stimulated with LPS in the presence of these compounds at various concentrations, and the expression levels of iNOS and COX-2 were determined by Western blotting. […] Thus, compound 3 may be considered a potential anti-inflammatory agent.
The total protein samples (10 μg) were loaded in sodium dodecyl sulfate polyacrylamide gel electrophoresis (SDS–PAGE) gels with 10% acrylamide/bis and transferred to polyvinylidene difluoride membranes (Millipore, Burlington, MA, USA). Then, the membranes were blocked with 5% silky milk dissolved in TBST (Tris Buffered saline Tween) for 1 h under room temperature and incubated overnight at 4 °C with specific primary antibodies (1:1000). […] The band densities were determined as the intensities of protein by TotalLab TL120 software v2009 (TotalLab, Newcastle, UK).
In general terms: In western blotting, separated proteins are transferred to a membrane and probed.

Another series concerns iNOS. Briefly: Western blot of LPS-induced iNOS expression in BV-2 microglial cells. It counts as cell-based, mouse. To be noted: LPS-stimulated BV-2 microglial cells, various concentrations (1.0, 2.0, 4.0 µM). The protocol: as §1
The total protein samples (10 μg) were loaded in sodium dodecyl sulfate polyacrylamide gel electrophoresis (SDS–PAGE) gels with 10% acrylamide/bis and transferred to polyvinylidene difluoride membranes (Millipore, Burlington, MA, USA). Then, the membranes were blocked with 5% silky milk dissolved in TBST (Tris Buffered saline Tween) for 1 h under room temperature and incubated overnight at 4 °C with specific primary antibodies (1:1000). After being washed with TBST, the membranes were incubated with secondary HRP-conjugated IgG (1:2000) at room temperature for 1 h and visualized using enhanced chemiluminescence (ECL) reagents (Thermo Fisher Scientific, Lafayette, CA, USA). Densitometry analysis of the bands was performed with the fusion solo system (Vilber, Paris, France). The band densities were determined as the intensities of protein by TotalLab TL120 software v2009 (TotalLab, Newcastle, UK).

[5] abbreviates: Mus musculus, BV-2, BV-2 microglial cells.

Entries after “also recorded” stand apart in the source; their conditions may differ. A value given as a limit tells only on which side of the number the result lay.

Broadly, the IC50 is the concentration needed to halve the response being measured. As to `O=c1c(O[C@@H]2O[C@H](CO)[C@@H](O)[C@H](O)[C@H]2O[C@@H]2OC[C@@H](O)[C@H](O)[C@H]2O)c(-c2ccc(O)c(O)c2)oc2cc(O[C@@H]3O[C@H](CO)[C@@H](O)[C@H](O)[C@H]3O)cc(O)c12` [Compound 2, quercetin-3-O-(2″-O-(β-D-xylopyranosyl)-β-D-glucopyranoside)-7-O-β-D-glucopyranoside], the “Degradation on storage (in words)” value in series [1] was “showed signs of degradation”. Further, the IC50 in series [2] (setting [5]) and in series [4] was > 100 µM in each case. The half-maximal inhibitory concentration (IC50) at 12 h in series [3] was > 100 µM.

Consider `O=c1c(O[C@@H]2O[C@H](CO)[C@H](O)[C@H](O)[C@H]2O)c(-c2ccc(O)c(O)c2)oc2cc(O)cc(O)c12` [Compound 3, quercetin-3-O-β-D-galactopyranoside], for which the IC50 is 16.3 ± 2.94 µM in series [2] (BV-2 microglial cells) and 14.4 µM in series [2] (setting [5]). Moreover, the “Inhibitory effect on NO production (in words)” value in series [2] is “effectively downregulated; also recorded: good inhibitory effects”. Moreover, the “LPS-induced COX-2 protein expression (in words)” value with COX-2 is “suppressed; also recorded: most potent inhibitory activity”. In addition, in series [3], the IC50 at 12 h was > 100 µM. Further, the “LPS-induced iNOS protein expression (in words)” value in the series with iNOS is reported as “suppressed; also recorded: most potent inhibitory activity; also recorded: effectively downregulated”.

For the molecule `O=c1c(O[C@@H]2O[C@H](CO)[C@@H](O)[C@H](O)[C@H]2O)c(-c2ccc(O)c(O)c2)oc2cc(O[C@@H]3O[C@H](CO)[C@@H](O)[C@H](O)[C@H]3O)cc(O)c12` [Compound 4, quercetin-3,7-di-O-β-D-glucopyranoside], the “Inhibitory effect on NO production (in words)” value in series [2] is listed as “effectively downregulated; also recorded: good inhibitory effects”. In addition, in series [2] (setting [5]), the IC50 was 14.4 ± 8.68 µM. For the same molecule, the “LPS-induced COX-2 protein expression (in words)” value in the series on COX-2 is recorded as “suppressed”. Further, in series [3], the IC50 at 12 h is > 100 µM. For the same molecule, in the series with iNOS, the “LPS-induced iNOS protein expression (in words)” value is “suppressed; also recorded: effectively downregulated”.
